Patent US12133909B2, “Use of evodone or a derivative thereof as a cooling agent” (ROBERTET S.A., priority 2019, dated 2024)

Legend:
[1] = Skin temperature by thermal camera after application of creams on the back; type: in vivo, human; conditions: 1% in cream
Procedure: For this study, the cooling effect of 5 compositions containing different cooling agents is evaluated in vivo according to the following protocol.
22 female subjects aged from 18 to 63 were selected. On the back of each subject, between the two scapulas, six areas of 3 cm×2.5 cm are delimited. On 5 areas chosen each time randomly, 15 mg of the compositions to be tested are applied. Nothing is applied onto the sixth area (i.e. control).
From the time of application of the creams (T0), the skin temperature of the different zones is measured on each subject using a thermal camera (Thermovision SC6000HS (Flirsystems)—resolution 640×512—frequency 125 Hz) at the following times: T0, T0+15 s, T0+30 s, T0+45 s, T0+1 min, T0+1 min30 s, T0+2 min, T0+3 min, T0+4 min, T0+5 min, T0+6 min, T0+8 min and T0+10 min. The measurements are performed at 21° C.±1.5° C., the subject lying on their stomach and motionless. The temperatures are measured with an accuracy of around 0.10° C.
A variance test (ANOVA) is used to compile and validate the results. […]
If these two conditions are met, the statistical analysis allowing comparing the parameters measured at the different times is conducted by a one-factor variance analysis (ANOVA) test on repeated measurements. […]

[2] = Cooling effect of creams rated on a 0 to 3 scale after application onto the forearms; type: in vivo, human; conditions: 1% in cream, forearm sensory score
Procedure: To measure the cooling effect, 100 mg of one of the creams 1 to 4 or of a placebo are applied onto the inner side of both forearms of persons who have agreed to test the product. After one minute, each participant is asked to rate the cooling effect on a scale of 0 to 3 (i.e. score), with 3 being the maximum effect.
Each cream (including the placebo) is applied randomly and blindly to the forearms of 17 people.

## Cc1coc2c1C(=O)CC(C)C2 (stereo not drawn) [evodone, 6-dimethyl-6,7-dihydro-5H-1-benzofuran-4-one]
[1]
  Cooling effect compared with menthyl lactate, citriodiol or cubebol: cooling effect similar to that which can be provided by molecules such as menthyl lactate
[2]
  Cooling effect compared with citriodiol or cubebol: cooling effect similar to that which can be provided by molecules such as citriodiol or cubebol
  Cooling effect compared with menthyl lactate (Frescolat ML): significantly greater than that obtained with menthyl lactate
